Converted amounts (≈) assume the structure as drawn. The source made the active and inactive calls. No cut-off for these calls is given here.
What was measured:
Staphylococcus aureus [1] = test: Potency index, ratio of oxacillin sodium MIC to test compound MIC for penicillin-resistant Staphylococcus aureus clinical isolate; type: functional
Staphylococcus aureus [2] = test: Potency index, ratio of ciprofloxacin MIC to test compound MIC for penicillin-resistant Staphylococcus aureus clinical isolate; type: functional
Streptococcus pyogenes [3] = test: Antibacterial activity against penicillin-resistant Streptococcus pyogenes after 24 hrs by broth microdilution method; type: functional
Bacillus pumilus = test: Antibacterial activity against penicillin-susceptible Bacillus pumilus ATCC 63202 after 24 hrs by broth microdilution method; type: functional; conditions: ATCC 63202, 24 h
Staphylococcus aureus [4] = test: Antibacterial activity against penicillin-susceptible Staphylococcus aureus ATCC 25923 after 24 hrs by broth microdilution method; type: functional; conditions: ATCC 25923, 24 h
Escherichia coli = test: Antibacterial activity against penicillin-susceptible Escherichia coli ATCC 25922 after 24 hrs by broth microdilution method; type: functional; conditions: ATCC 25922, 24 h
Staphylococcus aureus [5] = test: Potency index, ratio of ciprofloxacin MIC to test compound MIC for methicillin-resistant Staphylococcus aureus ATCC 43300; type: functional
Streptococcus pyogenes [6] = test: Potency index, ratio of ciprofloxacin MIC to test compound MIC for penicillin-susceptible Streptococcus pyogenes; type: functional
Staphylococcus aureus [7] = test: Potency index, ratio of ciprofloxacin MIC to test compound MIC for penicillin-susceptible Staphylococcus aureus ATCC 25923; type: functional
Streptococcus pyogenes [8] = test: Potency index, ratio of oxacillin sodium MIC to test compound MIC for penicillin-susceptible Streptococcus pyogenes; type: functional
Streptococcus pyogenes [9] = test: Antibacterial activity against penicillin-susceptible Streptococcus pyogenes after 24 hrs by broth microdilution method; type: functional
Streptococcus pyogenes [10] = test: Potency index, ratio of ciprofloxacin MIC to test compound MIC for penicillin-resistant Streptococcus pyogenes; type: functional
Streptococcus pyogenes [11] = test: Potency index, ratio of oxacillin sodium MIC to test compound MIC for penicillin-resistant Streptococcus pyogenes; type: functional
[12] = target: T1, Cell division protein FtsZ (Bacillus subtilis) (UniProt A5Z1V5); test: Inhibition of penicillin-susceptible Bacillus subtilis ATCC 9372 N-terminal His6-tagged FtsZ expressed in Escherichia coli BL21 (DE3) cells by fluorescence spectrophotometer-based light scattering assay
T1 sequence (whole entry): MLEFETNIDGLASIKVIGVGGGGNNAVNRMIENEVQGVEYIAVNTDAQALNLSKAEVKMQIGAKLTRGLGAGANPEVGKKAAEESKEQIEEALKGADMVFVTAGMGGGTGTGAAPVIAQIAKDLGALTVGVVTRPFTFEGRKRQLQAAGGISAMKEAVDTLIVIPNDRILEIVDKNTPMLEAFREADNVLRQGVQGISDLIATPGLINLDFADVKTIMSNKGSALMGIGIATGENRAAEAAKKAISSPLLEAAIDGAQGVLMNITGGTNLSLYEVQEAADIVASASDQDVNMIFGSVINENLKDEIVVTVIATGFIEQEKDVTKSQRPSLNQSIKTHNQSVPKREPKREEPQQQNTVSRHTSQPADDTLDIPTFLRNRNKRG

Staphylococcus aureus [13] = test: Potency index, ratio of oxacillin sodium MIC to test compound MIC for methicillin-resistant Staphylococcus aureus ATCC 43300; type: functional
[14] = tested on: Staphylococcus epidermidis; test: Antibacterial activity against penicillin-resistant Staphylococcus epidermidis clinical isolate after 24 hrs by broth microdilution method; type: functional
Staphylococcus aureus [15] = test: Antibacterial activity against methicillin-resistant Staphylococcus aureus ATCC 43300 after 24 hrs by broth microdilution method; type: functional; conditions: ATCC 43300, 24 h
Staphylococcus aureus [16] = test: Potency index, ratio of oxacillin sodium MIC to test compound MIC for penicillin-susceptible Staphylococcus aureus ATCC 25923; type: functional
Bacillus subtilis = test: Antibacterial activity against penicillin-susceptible Bacillus subtilis ATCC 9372 after 24 hrs by broth microdilution method; type: functional; conditions: ATCC 9372, 24 h
Pseudomonas aeruginosa = test: Antibacterial activity against penicillin-susceptible Pseudomonas aeruginosa ATCC 27853 after 24 hrs by broth microdilution method; type: functional; conditions: ATCC 27853, 24 h
Staphylococcus aureus [17] = test: Antibacterial activity against penicillin-resistant Staphylococcus aureus clinical isolate after 24 hrs by broth microdilution method; type: functional
[18] = tested on: Staphylococcus epidermidis; test: Potency index, ratio of ciprofloxacin MIC to test compound MIC for penicillin-resistant Staphylococcus epidermidis clinical isolate; type: functional
Staphylococcus aureus [19] = test: Bactericidal activity against penicillin-susceptible Staphylococcus aureus ATCC 25923 after 24 hrs by flat colony counting method; type: functional; conditions: ATCC 25923, 24 h
[20] = tested on: Staphylococcus epidermidis; test: Potency index, ratio of oxacillin sodium MIC to test compound MIC for penicillin-resistant Staphylococcus epidermidis clinical isolate; type: functional
[21] = target: T1, Cell division protein FtsZ (Bacillus subtilis); test: Inhibition of penicillin-susceptible Bacillus subtilis ATCC 9372 N-terminal His6-tagged FtsZ expressed in Escherichia coli BL21 (DE3) cells at 10 ug/ml by fluorescence spectrophotometer-based light scattering assay
[22] = target: T2, Cell division protein FtsZ (Staphylococcus aureus) (UniProt P0A031); test: Inhibition of FtsZ in penicillin-susceptible Staphylococcus aureus ATCC 25923 assessed as increase in length of bacteria at 4 ug/ml after 5 hrs by phase-contrast light microscopic method
T2 sequence (whole entry): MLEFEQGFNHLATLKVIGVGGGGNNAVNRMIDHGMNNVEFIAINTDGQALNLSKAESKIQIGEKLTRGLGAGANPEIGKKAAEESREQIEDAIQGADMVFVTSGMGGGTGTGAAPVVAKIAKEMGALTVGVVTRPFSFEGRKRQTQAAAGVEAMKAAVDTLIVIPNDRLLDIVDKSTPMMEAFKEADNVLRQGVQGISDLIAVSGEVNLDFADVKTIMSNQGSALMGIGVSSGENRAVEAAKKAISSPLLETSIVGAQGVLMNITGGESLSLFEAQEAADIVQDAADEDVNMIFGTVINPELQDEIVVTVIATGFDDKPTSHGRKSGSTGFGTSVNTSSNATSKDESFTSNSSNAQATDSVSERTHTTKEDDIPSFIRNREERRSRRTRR

[23] = target: T1, Cell division protein FtsZ (Bacillus subtilis); test: Inhibition of FtsZ in penicillin-susceptible Bacillus subtilis ATCC 9372 assessed as increase in length of bacteria at 8 ug/ml after 5 hrs by phase-contrast light microscopic method

SMILES	Ratio (Staphylococcus aureus [1])	Ratio (Staphylococcus aureus [2])	MIC (Streptococcus pyogenes [3]) [µg/mL]	MIC (Bacillus pumilus) [µg/mL]	MIC (Staphylococcus aureus [4]) [µg/mL]	MIC (Escherichia coli) [µg/mL]	Ratio (Staphylococcus aureus [5])	Ratio (Staphylococcus aureus [7])	MIC (Streptococcus pyogenes [9]) [µg/mL]	Ratio (Staphylococcus aureus [13])	MIC [14] [µg/mL]	MIC (Staphylococcus aureus [15]) [µg/mL]	Ratio (Staphylococcus aureus [16])	MIC (Bacillus subtilis) [µg/mL]	MIC (Pseudomonas aeruginosa) [µg/mL]	MIC (Staphylococcus aureus [17]) [µg/mL]	MBC (Staphylococcus aureus [19]) [µg/mL]	also measured
Cc1cc(-c2ccc(-c3ccccc3)cc2)cc2c3ccccc3c[n+](C)c12.[Cl-]	256	64	2	0.125	0.06	> 64	4 - 164	133	1	16 - 256	0.125	0.5	67	0.125	> 64	0.25	64	Ratio (Streptococcus pyogenes [6]): 8; Ratio (Streptococcus pyogenes [8]): 1; Ratio (Streptococcus pyogenes [10]): 32; Ratio (Streptococcus pyogenes [11]): 32; inhibition [12]: Dose-dependent effect; Ratio [18]: 512; Ratio [20]: 512
O=C(O)c1cn(C2CC2)c2cc(N3CCNCC3)c(F)cc2c1=O [CIPROFLOXACIN]			> 64	8 (≈ 24.1 µM)	8 (≈ 24.1 µM)				8 (≈ 24.1 µM)					2 (≈ 6.04 µM)				inhibition [21]: Active
C[n+]1cc2c3c(ccc2c2ccc4cc5c(cc4c21)OCO5)OCO3.[Cl-] [SANGUINARIUM CHLORIDE]			4	4	8	> 64			4		8	8		4	> 64	4		inhibition [22]: Active; inhibition [23]: Active
Cc1cc(-c2ccc(OC(F)(F)F)cc2)cc2c3ccccc3c[n+](C)c12.[Cl-]	16 - 256	4 - 64	4	0.125	0.06	> 64	64	133	2	256	0.25	0.25	67	0.125	> 64	1	16	
